Experimental data: the supplement of paper PMC6206229
≈ marks a conversion by molar mass, not a printed value.

How the values were obtained:
[1] = system: Staphylococcus aureus ATCC 29213 (MSSA); experiment: minimum inhibitory concentration; extreme values may be limits of the assay
Method in brief: (§1)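 Following CLSI guidance, methicillin-susceptible and methicillin-resistant Staphylococcus aureus were exposed to compounds from 0 to 100 µM in 96-well plates for 24 h at 37°C, then to 30 µl of 0.015% resazurin for 2–4 h. The minimum inhibitory concentration was read as the lowest concentration with no change from blue to pink. Testing was done at least twice in triplicate with positive controls on each plate.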

[2] = system: Staphylococcus aureus ATCC 700699 (MRSA); experiment: as above
Method in brief: as §1

SMILES | minimum inhibitory concentration [1] [µM] | minimum inhibitory concentration [2] [µM]
CC(C)C(NC(=O)Cc1cccc2ccccc12)C(=O)Nc1cccc(C#N)c1 (centres undefined) | > 50 | > 50
CN1CCN(c2cc(-c3ccc(F)cc3)nc(-c3ccncc3)n2)CC1 | > 50 | > 50
COC(=O)C1=C(C)NC(C)=C(C(=O)OC(C)C)C1c1cccc2nonc12 (centres undefined) | > 50 | > 50
CCCCCCCCCCCCCCCCOP(=O)([O-])OCC[N+](C)(C)C | > 50 | > 50
CC(=O)Nc1ccc(-c2noc(CC3CCCN(Cc4cccc(F)c4C)C3)n2)cc1 (centres undefined) | > 50 | > 50
CC1CCCN(C(=O)C(C)Nc2cc(Cl)ccc2N2CCOCC2)C1 (centres undefined) | > 50 | > 50
O=C(c1ccc(NCCO)cc1)C1C[C@H]1c1ccc(Cl)cc1 (some centres undefined) | > 50 | > 50
Clc1ccc(CCNc2cc(-c3ccccc3)nc3ncnn23)cc1 | > 50 | > 50
CC[C@@H](CO)NCCN[C@@H](CC)CO | > 50 | > 50
Nc1ncnc2c1c(Cc1cccc3ccccc13)nn2CC1CCNCC1 | > 50 | > 50
CC(=O)Oc1ccccc1C(=O)Nc1ncc([N+](=O)[O-])s1 | > 50 | > 50
CC(C)(C)OC(=O)N1CCN(c2nccc(-c3ccc(-c4ccc(Cl)cc4)s3)n2)CC1 | > 50 | > 50
O=C(NC1=NCCS1)c1sc2cc(F)ccc2c1Cl | > 50 | > 50
CNc1cc(C)nc(C2CN(C(=O)c3n[nH]c4ccccc34)CCO2)c1 (centres undefined) | > 50 | > 50
COc1cc(C(F)(F)F)nc2ccc(C)c(N)c12 | > 50 | > 50
CC(C)(CN)c1nc(-c2ccc(Cl)c(O)c2)c(-c2ccnc(N)n2)[nH]1 | > 50 | > 50
CC1(C)OB(O)c2ccc(C3=NOC(c4cc(Cl)c(F)c(Cl)c4)(C(F)(F)F)C3)cc21 (centres undefined) | 6.25 (≈ 2.89 µg/mL) | 6.25 (≈ 2.89 µg/mL)
CCCS(=O)(=O)N1CCC(CO)(Cc2ccccc2C(F)(F)F)CC1 | > 50 | > 50
CO/C=C(/C(=O)OC)c1ccccc1Oc1cc(Oc2ccccc2C#N)ncn1 | > 50 | > 50
Cc1cc(Cl)c(S(=O)(=O)N2CCCC2)cc1OCC(=O)NC1CCCCC1 | > 50 | > 50
CNC(=O)CNc1nc(-c2ccccn2)nc2scc(-c3ccccc3)c12 | > 50 | > 50
CC(C)(C)n1nc(Cc2cccc3ccccc23)c2c(N)ncnc21 | > 50 | > 50
CCCCOC(=O)Nc1cc2nc(C3CCCCC3)[nH]c2cc1N1CCCC1 | > 50 | > 50
CNc1nnc(Sc2cnn(-c3ccccc3)c(=O)c2Cl)s1 | > 50 | > 50
CC1CCCCN1C(=O)NCCc1coc(-c2ccc(F)cc2)n1 (centres undefined) | > 50 | > 50
Cc1cc(C)n2nc(C(=O)Nc3cc(C(F)(F)F)ccc3N3CCOCC3)nc2n1 | > 50 | > 50

SMILES | minimum inhibitory concentration [1] [µM] | minimum inhibitory concentration [2] [µM]
NCCC(O)C(=O)N[C@@H]1C[C@H](N)[C@@H](OC2O[C@H](CN)[C@@H](O)[C@H](O)[C@H]2O)[C@H](O)C1OC1O[C@H](CO)[C@@H](O)[C@H](N)[C@H]1O (some centres undefined) | > 50 | > 50
O=C(NCc1ccco1)N1CCN(Cc2ccc(Cl)s2)CC1 | > 50 | > 50
CC(=O)OCC1OC([S-])C(OC(C)=O)C(OC(C)=O)C1OC(C)=O.CCP(CC)CC.[Au+] (centres undefined) | 0.39 | 0.78
O=C(C1CCN(c2cc(-n3cccc3)ncn2)CC1)N1CCc2ccccc2C1 | > 50 | > 50
O=C(Nc1ccccc1-c1nc2c(C(=O)O)cccc2o1)c1ccccc1 | > 50 | > 50
COc1ccc(-c2nnc3ccc(-c4cccc(C(C)C)c4)cn23)cc1OC | > 50 | > 50
Cc1nn(C)cc1C(C)Nc1nncc(-c2ccc(C(F)(F)F)cc2)n1 (centres undefined) | > 50 | > 50
C[C@@H]1[C@H](O)[C@@H](C)/C=C/C=C/C=C/C=C/C=C/C=C/C=C/[C@H](O[C@@H]2O[C@H](C)[C@@H](O)[C@H](N)[C@@H]2O)C[C@@H]2O[C@](O)(C[C@@H](O)C[C@@H](O)[C@H](O)CC[C@@H](O)C[C@@H](O)CC(=O)O[C@H]1C)C[C@H](O)[C@H]2C(=O)O | 50 (≈ 46.2 µg/mL) | 50 (≈ 46.2 µg/mL)
Nc1ncnc2c1c(-c1cnc3ccccc3c1)nn2CC1CCNCC1 | > 50 | > 50
Cc1cc(NC(=O)c2ccc(S(=O)(=O)N(Cc3ccccc3)C(C)C)cc2)no1 | > 50 | > 50
COc1cc(NC(=O)Cc2nn(C)c(=O)c3ccccc23)ccc1Cl | > 50 | > 50
CCOc1ccc(-c2nc(NC(=O)CS(=O)(=O)c3ccccc3)sc2C)cc1 | > 50 | > 50
Cc1cccc(C(=O)Nc2ccnc(N(C)C3CCN(CC(C)C)CC3)c2)c1 | > 50 | > 50
N=C(N)c1ccc(-c2cc(-c3ccccc3)on2)cc1 | > 50 | > 50
CCCn1c(NC(=O)c2ccc3ccccc3n2)nc2ccccc21 | > 50 | > 50
CCn1cnc2c(Nc3cc(F)cc(F)c3)nc(C#N)nc21 | > 50 | > 50
O=C(NC1CCN(c2ccnc3ccccc23)C1)c1cccc(C(F)(F)F)c1 (centres undefined) | > 50 | > 50
c1coc(CNc2nc(N3CCCCC3)nc3ccccc23)c1 | > 50 | > 50
c1ccc(-c2cc(N3CCCCC3)c3ccccc3n2)nc1 | > 50 | > 50
Brc1c(-c2ccc3c(c2)OCO3)nc2ncccn12 | > 50 | > 50
COc1cc2ncnc(NC3CCN(Cc4ccccc4)CC3)c2cc1OC | > 50 | > 50
CN1CCC(NCc2cccc(-c3ccc(S(=O)(=O)NCc4ccccc4)cc3)c2)CC1 | > 50 | > 50
Cc1cc(C)nc(-n2nc(C)cc2Nc2ccccc2)n1 | > 50 | > 50
O=C(Nc1nc(-c2ccccn2)cs1)C1CC1c1ccccc1F (centres undefined) | > 50 | > 50
O=C(Nc1c(O)cccc1-c1nc2c(C(=O)O)cccc2o1)c1cc(-c2ccccc2)on1 | > 50 | > 50
Cc1nc(-c2cccc(NCc3ccccc3)c2)[nH]c1C | 50 (≈ 13.9 µg/mL) | 50 (≈ 13.9 µg/mL)
